Test results: the METLIN SMRT retention time set (Domingo-Almenara et al. 2019)

Experiment: gradient 5% acetonitrile 3 min, to 50% in 2 min, to 85% in 15 min, held 3 min, 100 µL/min
Conditions: column: Zorbax Extend-C18 2.1 x 50 mm; eluents: water / acetonitrile, 0.1% formic acid
In short: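 Retention time was recorded from adduct peaks, which were picked computationally and each inspected manually. Pure standards ran in mixtures of ~100 molecules on HPLC coupled to a quadrupole time-of-flight mass spectrometer, in positive and negative ionization mode, through a Zorbax Extend-C18 column (2.1 × 50 mm, 1.8 μm) at 100 μL/min. Eluents were water and acetonitrile, each with 0.1% formic acid.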

RP-LC retention time [s] | SMILES
1000 | CCCC1O[C@@H]2C[C@H]3[C@@H]4CCC5=CC(=O)C=C[C@]5(C)[C@H]4[C@@H](O)C[C@]3(C)[C@]2(C(=O)CO)O1 (stereo partly drawn)
868 | CSc1ccc(-c2nc3c(C)cccn3c2NC2CCCCC2)cc1
1060 | Cc1ccc(-c2cc3c4nnc(SCC(=O)Nc5cccc(Cl)c5)n4ccn3n2)cc1C
611 | O=C(Nc1nnc(SCc2cn3ccccc3n2)s1)C1(c2cccs2)CCCC1
724 | CCN1C(=O)C2(CCN(S(=O)(=O)c3cn(C)cn3)CC2)c2ccccc21
1050 | CCn1ccc(C(=O)N2CCc3cc(-c4csc(C5CC5)n4)ccc32)n1
904 | CCCCC(=O)N1CC(c2nc(-c3ccc(F)cc3)no2)C2(CCOCC2)C1 (stereo not drawn)
688 | COc1cccc(NS(=O)(=O)c2c[nH]c3ncccc23)c1
930 | Cn1nccc1C(=O)NCc1ccc(-c2nc(-c3ccc(F)cc3)no2)s1
1050 | Cn1nccc1-c1cccc(-c2noc(-c3ccnc(Cl)c3)n2)c1
980 | N#Cc1ccc(S(=O)(=O)N2CC(c3nc(CCOCc4ccccc4)no3)C2)cc1
821 | Cn1nc(-c2nc(C3CC3)no2)c2c1CCN(C(=O)c1ccccc1Br)C2
615 | O=C(CN1CCN(C(=O)Nc2ccc(F)cc2)CC1=O)N1CCCC1
993 | COC(=O)c1cccc(C(=O)Nc2ccc(F)cc2Cl)n1
629 | Cc1cc(C(=O)N2CCCCC2c2nncn2CC2CC2)nn1C (stereo not drawn)
994 | COc1ccccc1-c1noc(Cn2c(=O)n(C(C)C)c(=O)c3ccccc32)n1
896 | CCOC(=O)c1cc(-c2cccc(OC)c2OC)no1
764 | Cc1ccc(CC(=O)Nc2cnn(C)c(=O)c2N2CCOCC2)cc1
1190 | CCOc1cccc(-c2noc(-c3nnn4c3COC(c3ccc(F)cc3)C4)n2)c1 (stereo not drawn)
917 | CCC(C)N(CC(=O)N(Cc1ccco1)CC1CCCO1)C(=O)c1ccc(C)cc1 (stereo not drawn)
742 | CCCCN(C)C(=O)Cn1c(C2CC(=O)N(Cc3ccccc3)C2)nc2ccccc21 (stereo not drawn)
736 | O=C(Cn1c(=O)c(CCC(=O)NC2CC2)nc2ccccc21)NCc1ccccc1Br

RP-LC retention time [s] | SMILES
868 | COc1cccc(S(=O)(=O)N2CCC([C@H]3[C@@H](OC)C(=O)N3C(C)C)CC2)c1
755 | CCn1nccc1C(=O)N1c2ccccc2CC1c1nnc(C2CC2)o1 (stereo not drawn)
1000 | COc1ccc(-c2ncc3c(n2)CCN(C(=O)c2ccc(Br)cc2)C3)cc1
583 | Cc1cnc(C2CCC2)n1CC1CCCN(Cc2cn(C)c3ccccc23)C1 (stereo not drawn)
616 | Cc1ccnc(N2CCC(C(=O)N3CCN(C(=O)c4ccco4)CC3)CC2)n1
1060 | C#Cc1cccc(NC(=O)c2ccc(Cl)cc2Cl)c1
763 | COc1ccccc1CNC(=O)Cn1ccc2ccc(-c3nnc(C)o3)cc21
1210 | Cc1csc(-c2cc(S(=O)(=O)N3CCCc4ccccc43)c(C)s2)n1
693 | CC(C)c1noc(-c2ccnc(-n3cnc(C(=O)NC4CCCC4)c3)c2)n1
614 | CCCCN(CC)CCNC(=O)C1CCCN(c2ncnc3c2nc2n3CCCCC2)C1 (stereo not drawn)
1110 | CCOc1ccc(N2C(=O)C3N=NN(Cc4nc(-c5ccc(C)c(C)c5)no4)C3C2=O)cc1 (stereo not drawn)
822 | CCc1ccc(NC(=O)Cn2nc(C(=O)N3CCOCC3)c3ccccc32)cc1
988 | CCCCN1C(=O)C(NC(=O)c2cccc(OC)c2)(C(F)(F)F)C(C(=O)OC)=C1C (stereo not drawn)
717 | CC1CCN(C(=O)C2CCc3sc(C(=O)N(C)C)cc3C2)CC1 (stereo not drawn)
621 | CCN1CCN(C(=O)C2CCN(S(=O)(=O)c3c(C)nn(-c4ccccc4)c3C)CC2)CC1
659 | CNc1nc(Nc2ccccc2OC)nc2ccccc12
728 | O=C(Nc1ccccc1-c1nc2ccccc2s1)c1ccno1
690 | CCNC(=O)C1CCCN(c2nc3ncn(CC(=O)N4CCc5ccccc5C4)c(=O)c3s2)C1 (stereo not drawn)
714 | Cc1nn(C)c(C)c1CNC(=O)c1ccc2nc(Cc3ccccc3)oc2c1
602 | CCCN1CCN(CCCNC(=O)c2c(N3CCCC3=O)c3cc(F)ccc3n2CC)CC1
773 | CC(C)[C@H](NC(=O)OCc1ccccc1)C(=O)N[C@H](C=O)Cc1ccccc1
756 | CCCNC(=O)C1CCN(c2nc3ccsc3c(=O)n2-c2ccc(C)cc2)CC1

RP-LC retention time [s] | SMILES
724 | COc1ccc(Cl)cc1N1CC(c2nc(-c3ccccn3)no2)CC1=O (stereo not drawn)
759 | CCC(C)n1c(C)cc(=O)n1C(C)CC (stereo not drawn)
761 | CCNC(=O)N1CCCC1c1nc(-c2ccc(OC)cc2)no1 (stereo not drawn)
764 | CCC(=O)N1CCc2cc(-c3ccc(C(=O)N4CCN(C(=O)c5ccco5)CC4)cc3)ccc21
598 | CCCC(=O)Nc1ccc(-n2cnc(C(=O)NC)c2)nc1
1100 | Cn1nccc1-c1cccc(-c2noc(-c3cncc(Br)c3)n2)c1
548 | CSc1ccccc1CN1CCC(CNC(=O)c2ccco2)CC1
796 | Cc1cccc(CNC(=O)c2ccc3c(c2)Sc2ncccc2C(=O)N3C)c1
931 | Cc1ccc(S(=O)(=O)C2=C(O)C(=O)N(Cc3ccco3)C2c2ccc(F)cc2)cc1 (stereo not drawn)
570 | CCOCC(=O)NCCNC(=O)c1ccc(NC(C)=O)cc1
854 | COC(=O)c1cn(Cc2cccc(C)c2)c2nc(C)ccc2c1=O
997 | CCCn1c(=O)sc2cc(S(=O)(=O)N3CCC(C(=O)Nc4ccc(C)cc4C)CC3)ccc21
711 | COc1ccc2c(CCNC(=O)Nc3ccc(Cl)cc3)c[nH]c2c1
883 | Cc1nc(N2CCOCC2)c2c(C(=O)Nc3ccc(Cl)cc3)c(C)oc2n1
736 | CCC(=O)N1CCc2cc(C(=O)N3CCN(c4ccc(C(C)=O)cc4)CC3)ccc21
754 | Cc1cc(=O)n(CC(=O)Nc2cccc(C(F)(F)F)c2)c(N2CCOCC2)n1
842 | COc1ccc(NC(=O)C2(C)Oc3cccnc3N(C)C2=O)cc1Cl (stereo not drawn)
1170 | CSc1ccc(Cl)c(-c2nc(-c3ccc4c(c3)oc(=O)n4C)no2)c1
585 | O=C(O)C(c1ccccc1)n1cnnn1 (stereo not drawn)
1210 | COc1cc(OC)cc(C(=O)Nc2nc3c(s2)Cc2c(Br)ccc(OC)c2-3)c1
1050 | CCN(C(=O)CN1C(=O)CCCc2cc(S(=O)(=O)N3CCC(C)CC3)ccc21)c1ccccc1
802 | CCOC(=O)C1CCCN(C(=O)c2cn(-c3cc(N4CCSCC4)ncn3)cn2)C1 (stereo not drawn)

RP-LC retention time [s] | SMILES
846 | CCc1noc(NC(C)=O)c1-c1ccc(OC)c(S(=O)(=O)Nc2ccc(C)c(C)c2)c1
666 | Cc1nn(CCCC(=O)NCCN2CCCC2)c(=O)c2c(-n3cccc3)n(-c3ccccc3)nc12
858 | Cc1ccc(Cl)cc1S(=O)(=O)NCC(O)Cc1ccccc1 (stereo not drawn)
875 | CCOC(=O)N1CCN(c2ncc(S(=O)(=O)c3ccc(C)cc3)c(N)n2)CC1
810 | Cc1nn2c(CNC(=O)c3ccccc3)c(-c3ccccc3)nc2s1
739 | CCC(C)NC(=O)c1ccc(CN2CCN(Cc3ccc(F)cc3)C(=O)C2=O)cc1 (stereo not drawn)
791 | CCc1onc(C)c1C1CCCN1C(=O)Nc1cccc(OC)c1 (stereo not drawn)
900 | CN(CCc1noc(-c2ccccc2Cl)n1)C(=O)COc1ccccc1
614 | CC(NC(=O)c1ccco1)c1nc2ccccc2n1CC(=O)N1CCCC1 (stereo not drawn)
623 | CSc1cccc(NC(=O)Nc2c(-c3ccncc3)nc3ccccn23)c1
697 | CCCN1C(=O)C(CC(=O)NCC2CC2)Sc2ncccc21 (stereo not drawn)
732 | COCC(=O)N1CCCc2ccc(NC(=O)CSc3ccc(F)cc3)cc21
948 | Cc1ccc(NC(=O)C2CCN(S(=O)(=O)c3ccc4c(c3)CCCC(=O)N4)CC2)cc1
1050 | O=C(NCc1ccc(F)c(Cl)c1)c1sc2ncccc2c1-n1cccc1
592 | COc1ccc(NC(=O)C2CCN(c3cncnc3N(C)C)CC2)cc1OC
589 | Cc1ccc(-n2nc3c(N4CCCC(C(=O)NCCN5CCOCC5)C4)nnc(C)c3c2C)cc1 (stereo not drawn)
728 | Cc1cc(C2CCCN2C(=O)Nc2ccc(C)c(C)c2)on1 (stereo not drawn)
824 | CC(C)n1cnc(S(=O)(=O)N2CCC(C(=O)Nc3ccc(Cl)cc3)CC2)c1
877 | COC(=O)N1CCc2ccccc2C1C(=O)Nc1ccccc1C(F)(F)F (stereo not drawn)
1010 | CC(C)c1ccc(CNC(=O)c2nnc(-c3ccc(S(=O)(=O)N(C)C)cc3)o2)cc1

SMILES | RP-LC retention time [s]
C[C@@H]1CC[C@H]2[C@H](C)[C@H]3CC[C@@]4(O)[C@@H]5CC(=O)[C@H]6CC(=O)CC[C@]6(C)[C@H]5C[C@H]4[C@@H]3CN2C1 | 636
Cn1cc(C2=C(c3cn(C4CCN(Cc5ccccn5)CC4)c4ccccc34)C(=O)NC2=O)c2ccccc21 | 753
